# “And” between values parts separate entries of the source, which are not always exact repeats. Identical values can stand only once.
# Legend:
# Assay in all cases: SelectScreen kinase assay
# Type in all cases: biochemical
# [1] = target: T1, Abl_T315I_h (Homo sapiens, UniProt P00519, T315I); details: KM ATP, read-out: % control
# T1 construct: purchased Life Technologies (Invitrogen) SelectScreen, Z'-LYTE / Adapta
# How it was run: (§1)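 Kinase activity measured by Z'-Lyte or Adapta protocols. Single-point testing used 3 µM compound with ATP at the enzyme's KM, or at 10 or 100 µM as indicated. Values given as % control versus DMSO-only wells (100%).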
# [2] = target: T2, CDK5_p25_h (Homo sapiens, UniProt Q00535); details: KM ATP, read-out: % control
# T2 construct: purchased Life Technologies (Invitrogen) SelectScreen, Z'-LYTE / Adapta
# How it was run: as §1
# [3] = target: T3, CHK2_h (Homo sapiens, UniProt O96017); details: KM ATP, read-out: % control
# T3 construct: purchased Life Technologies (Invitrogen) SelectScreen, Z'-LYTE / Adapta
# How it was run: as §1
# [4] = target: T4, CK1-delta_h (Homo sapiens, UniProt P48730); details: KM ATP, read-out: % control
# T4 construct: purchased Life Technologies (Invitrogen) SelectScreen, Z'-LYTE / Adapta
# How it was run: as §1
# [5] = target: T5, CK1-epsilon_h (Homo sapiens, UniProt P49674); details: KM ATP, read-out: % control
# T5 construct: purchased Life Technologies (Invitrogen) SelectScreen, Z'-LYTE / Adapta
# T5 sequence (P49674 whole entry): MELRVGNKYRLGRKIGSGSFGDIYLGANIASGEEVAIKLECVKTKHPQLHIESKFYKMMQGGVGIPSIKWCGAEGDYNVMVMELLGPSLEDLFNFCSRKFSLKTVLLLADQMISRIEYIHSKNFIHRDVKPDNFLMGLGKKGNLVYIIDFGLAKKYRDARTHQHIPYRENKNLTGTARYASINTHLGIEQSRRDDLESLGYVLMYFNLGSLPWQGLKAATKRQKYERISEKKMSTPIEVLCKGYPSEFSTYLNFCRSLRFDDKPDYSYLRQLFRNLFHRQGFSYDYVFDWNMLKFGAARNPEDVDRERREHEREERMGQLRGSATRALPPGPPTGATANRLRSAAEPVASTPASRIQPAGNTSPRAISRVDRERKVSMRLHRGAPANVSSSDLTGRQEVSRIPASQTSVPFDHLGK
# How it was run: as §1
# [6] = target: T6, CLK3_h (Homo sapiens, UniProt P49761); details: KM ATP, read-out: % control
# T6 construct: purchased Life Technologies (Invitrogen) SelectScreen, Z'-LYTE / Adapta
# How it was run: as §1
# [7] = target: T7, DCAMKL2_h (Homo sapiens, UniProt Q8N568); details: KM ATP, read-out: % control
# T7 construct: purchased Life Technologies (Invitrogen) SelectScreen, Z'-LYTE / Adapta
# How it was run: as §1
# [8] = target: T8, FGFR1_h (Homo sapiens, UniProt P11362); details: KM ATP, read-out: % control
# T8 construct: purchased Life Technologies (Invitrogen) SelectScreen, Z'-LYTE / Adapta
# How it was run: as §1
# [9] = target: T9, Fgr_h (Homo sapiens, UniProt P09769); details: KM ATP, read-out: % control
# T9 construct: purchased Life Technologies (Invitrogen) SelectScreen, Z'-LYTE / Adapta
# How it was run: as §1
# [10] = target: T10, GSK3-beta_h (Homo sapiens, UniProt P49841); details: KM ATP, read-out: % control
# T10 construct: purchased Life Technologies (Invitrogen) SelectScreen, Z'-LYTE / Adapta
# How it was run: as §1
# [11] = target: T11, HIPK2_h (Homo sapiens, UniProt Q9H2X6); details: KM ATP, read-out: % control
# T11 construct: purchased Life Technologies (Invitrogen) SelectScreen, Z'-LYTE / Adapta
# How it was run: as §1
# [12] = target: T12, HIPK4_h (Homo sapiens, UniProt Q8NE63); details: KM ATP, read-out: % control
# T12 construct: purchased Life Technologies (Invitrogen) SelectScreen, Z'-LYTE / Adapta
# How it was run: as §1
# [13] = target: T13, IRR_h (Homo sapiens, UniProt P14616); details: KM ATP, read-out: % control
# T13 construct: purchased Life Technologies (Invitrogen) SelectScreen, Z'-LYTE / Adapta
# How it was run: as §1
# [14] = target: T14, IR_h (Homo sapiens, UniProt P06213); details: KM ATP, read-out: % control
# T14 construct: purchased Life Technologies (Invitrogen) SelectScreen, Z'-LYTE / Adapta
# How it was run: as §1
# [15] = target: JAK3_h (Homo sapiens, UniProt P52333)
# JAK3_h, sequence (P52333 whole entry): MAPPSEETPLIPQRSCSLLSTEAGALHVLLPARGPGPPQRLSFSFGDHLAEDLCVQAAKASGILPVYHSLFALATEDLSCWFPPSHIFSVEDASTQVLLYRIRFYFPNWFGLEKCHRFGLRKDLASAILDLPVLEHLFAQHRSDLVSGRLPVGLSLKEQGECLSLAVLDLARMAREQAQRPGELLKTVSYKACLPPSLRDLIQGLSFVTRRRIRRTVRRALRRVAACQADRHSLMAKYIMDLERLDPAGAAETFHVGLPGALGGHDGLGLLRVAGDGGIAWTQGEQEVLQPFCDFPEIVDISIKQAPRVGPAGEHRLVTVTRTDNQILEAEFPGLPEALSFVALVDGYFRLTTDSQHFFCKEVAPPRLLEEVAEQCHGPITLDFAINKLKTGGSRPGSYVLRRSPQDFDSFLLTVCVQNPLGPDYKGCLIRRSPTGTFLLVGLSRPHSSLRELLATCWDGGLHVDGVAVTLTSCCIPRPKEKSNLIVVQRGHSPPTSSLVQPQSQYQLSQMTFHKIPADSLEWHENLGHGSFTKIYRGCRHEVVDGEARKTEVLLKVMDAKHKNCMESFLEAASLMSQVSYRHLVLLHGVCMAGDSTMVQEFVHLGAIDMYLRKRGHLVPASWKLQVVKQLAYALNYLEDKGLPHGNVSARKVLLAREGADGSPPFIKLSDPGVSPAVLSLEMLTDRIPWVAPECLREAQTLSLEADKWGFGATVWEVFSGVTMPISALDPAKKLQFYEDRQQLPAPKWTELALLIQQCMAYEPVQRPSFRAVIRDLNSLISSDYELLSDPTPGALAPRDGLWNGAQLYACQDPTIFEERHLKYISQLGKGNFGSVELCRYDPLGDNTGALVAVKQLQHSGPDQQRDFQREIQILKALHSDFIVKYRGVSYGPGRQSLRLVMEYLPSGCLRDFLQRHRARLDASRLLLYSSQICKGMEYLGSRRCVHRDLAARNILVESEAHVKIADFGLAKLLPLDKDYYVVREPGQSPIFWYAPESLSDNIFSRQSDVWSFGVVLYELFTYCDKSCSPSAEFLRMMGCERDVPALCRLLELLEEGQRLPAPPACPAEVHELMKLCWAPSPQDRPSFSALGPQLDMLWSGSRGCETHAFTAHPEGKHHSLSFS
# How it was run: as §1
# [16] = target: T15, JNK3_h (Homo sapiens, UniProt P53779); details: 100 µM ATP, read-out: % control
# T15 construct: purchased Life Technologies (Invitrogen) SelectScreen, Z'-LYTE / Adapta
# How it was run: as §1
# [17] = target: KDR_h (Homo sapiens, UniProt P35968)
# KDR_h, sequence (P35968 20-1356): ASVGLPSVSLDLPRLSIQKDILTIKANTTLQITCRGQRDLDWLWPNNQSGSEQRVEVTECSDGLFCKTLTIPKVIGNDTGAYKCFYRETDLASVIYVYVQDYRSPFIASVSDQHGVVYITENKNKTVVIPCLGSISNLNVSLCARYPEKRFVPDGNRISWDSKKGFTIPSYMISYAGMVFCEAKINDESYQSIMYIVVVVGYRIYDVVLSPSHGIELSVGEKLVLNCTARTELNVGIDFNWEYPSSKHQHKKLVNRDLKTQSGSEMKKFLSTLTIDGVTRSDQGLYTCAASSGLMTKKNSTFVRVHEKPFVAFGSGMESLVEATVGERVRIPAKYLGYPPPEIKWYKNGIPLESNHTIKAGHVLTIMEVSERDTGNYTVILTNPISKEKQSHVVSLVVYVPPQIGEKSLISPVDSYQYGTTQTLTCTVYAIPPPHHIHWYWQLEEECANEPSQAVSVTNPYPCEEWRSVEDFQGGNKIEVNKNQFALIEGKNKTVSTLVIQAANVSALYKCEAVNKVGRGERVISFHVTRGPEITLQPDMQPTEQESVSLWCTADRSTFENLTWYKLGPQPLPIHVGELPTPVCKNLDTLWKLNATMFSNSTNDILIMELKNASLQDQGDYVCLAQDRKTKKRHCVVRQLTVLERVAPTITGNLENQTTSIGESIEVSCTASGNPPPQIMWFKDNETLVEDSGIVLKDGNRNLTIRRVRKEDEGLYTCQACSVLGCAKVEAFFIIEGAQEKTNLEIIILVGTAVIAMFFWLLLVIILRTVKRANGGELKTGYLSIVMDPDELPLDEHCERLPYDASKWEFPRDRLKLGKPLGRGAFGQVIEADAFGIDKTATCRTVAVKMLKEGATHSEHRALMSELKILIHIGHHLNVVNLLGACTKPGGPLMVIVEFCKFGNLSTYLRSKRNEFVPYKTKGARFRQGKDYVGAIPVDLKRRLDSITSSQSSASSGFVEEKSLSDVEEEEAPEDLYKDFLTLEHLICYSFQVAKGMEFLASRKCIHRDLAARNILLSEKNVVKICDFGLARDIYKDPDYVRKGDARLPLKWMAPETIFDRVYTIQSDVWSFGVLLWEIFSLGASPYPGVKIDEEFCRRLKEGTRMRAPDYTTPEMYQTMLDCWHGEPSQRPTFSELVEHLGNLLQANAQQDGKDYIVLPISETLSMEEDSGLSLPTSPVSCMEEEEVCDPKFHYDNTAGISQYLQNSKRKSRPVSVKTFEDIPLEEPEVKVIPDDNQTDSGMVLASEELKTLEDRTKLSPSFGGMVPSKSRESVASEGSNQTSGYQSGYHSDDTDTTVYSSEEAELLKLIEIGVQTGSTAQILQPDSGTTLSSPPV
# How it was run: as §1
# [18] = target: T16, MAPKAP-K2_h (Homo sapiens, UniProt P49137); details: KM ATP, read-out: % control
# T16 construct: purchased Life Technologies (Invitrogen) SelectScreen, Z'-LYTE / Adapta
# How it was run: as §1
# [19] = target: T17, MSK1_h (Homo sapiens, UniProt O75582); details: KM ATP, read-out: % control
# T17 construct: purchased Life Technologies (Invitrogen) SelectScreen, Z'-LYTE / Adapta
# How it was run: as §1
# [20] = target: T18, MST1_h (Homo sapiens, UniProt Q13043); details: KM ATP, read-out: % control
# T18 construct: purchased Life Technologies (Invitrogen) SelectScreen, Z'-LYTE / Adapta
# How it was run: as §1
# [21] = target: T19, Met_M1250T_h (Homo sapiens, UniProt P08581, M1250T); details: KM ATP, read-out: % control
# T19 construct: purchased Life Technologies (Invitrogen) SelectScreen, Z'-LYTE / Adapta
# How it was run: as §1
# [22] = target: T20, PKD2_h (Homo sapiens, UniProt Q9BZL6); details: KM ATP, read-out: % control
# T20 construct: purchased Life Technologies (Invitrogen) SelectScreen, Z'-LYTE / Adapta
# How it was run: as §1
# [23] = target: T21, PRAK_h (Homo sapiens, UniProt Q8IW41); details: KM ATP, read-out: % control
# T21 construct: purchased Life Technologies (Invitrogen) SelectScreen, Z'-LYTE / Adapta
# How it was run: as §1
# [24] = target: T22, PRK1_h (Homo sapiens, UniProt Q16512); details: KM ATP, read-out: % control
# T22 construct: purchased Life Technologies (Invitrogen) SelectScreen, Z'-LYTE / Adapta
# T22 sequence (Q16512 whole entry): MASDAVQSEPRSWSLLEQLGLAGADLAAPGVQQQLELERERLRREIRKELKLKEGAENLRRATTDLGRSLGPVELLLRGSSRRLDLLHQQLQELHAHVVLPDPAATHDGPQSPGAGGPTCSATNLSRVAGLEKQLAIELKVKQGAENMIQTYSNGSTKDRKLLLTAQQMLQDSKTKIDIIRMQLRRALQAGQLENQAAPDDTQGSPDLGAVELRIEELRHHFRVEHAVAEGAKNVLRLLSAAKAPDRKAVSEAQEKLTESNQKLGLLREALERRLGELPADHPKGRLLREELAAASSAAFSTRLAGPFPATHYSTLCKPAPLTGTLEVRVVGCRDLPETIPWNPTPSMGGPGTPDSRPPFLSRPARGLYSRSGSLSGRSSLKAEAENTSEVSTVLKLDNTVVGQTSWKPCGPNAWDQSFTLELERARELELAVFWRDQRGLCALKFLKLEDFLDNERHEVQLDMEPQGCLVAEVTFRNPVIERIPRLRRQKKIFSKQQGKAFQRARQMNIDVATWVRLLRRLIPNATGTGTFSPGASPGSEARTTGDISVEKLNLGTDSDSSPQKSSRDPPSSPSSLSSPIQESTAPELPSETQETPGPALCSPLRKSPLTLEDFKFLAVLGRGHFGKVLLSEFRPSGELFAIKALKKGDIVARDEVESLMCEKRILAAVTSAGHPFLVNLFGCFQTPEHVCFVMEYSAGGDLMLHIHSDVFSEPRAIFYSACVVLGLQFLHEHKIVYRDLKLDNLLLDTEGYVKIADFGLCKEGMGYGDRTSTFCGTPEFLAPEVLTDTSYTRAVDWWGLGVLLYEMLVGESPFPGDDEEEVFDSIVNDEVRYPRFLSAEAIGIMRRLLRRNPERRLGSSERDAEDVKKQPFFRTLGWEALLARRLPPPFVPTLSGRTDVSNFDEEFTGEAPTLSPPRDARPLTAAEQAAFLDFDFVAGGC
# How it was run: as §1
# [25] = target: T23, Pim-1_h (Homo sapiens, UniProt P11309); details: KM ATP, read-out: % control
# T23 construct: purchased Life Technologies (Invitrogen) SelectScreen, Z'-LYTE / Adapta
# How it was run: as §1
# [26] = target: T24, Plk1_h (Homo sapiens, UniProt P53350); details: KM ATP, read-out: % control
# T24 construct: purchased Life Technologies (Invitrogen) SelectScreen, Z'-LYTE / Adapta
# How it was run: as §1
# [27] = target: T25, SGK3_h (Homo sapiens, UniProt Q96BR1); details: KM ATP, read-out: % control
# T25 construct: purchased Life Technologies (Invitrogen) SelectScreen, Z'-LYTE / Adapta
# How it was run: as §1
# [28] = target: Syk_h (Homo sapiens, UniProt P43405)
# How it was run: as §1
# [29] = target: T26, TrkA_h (Homo sapiens, UniProt P04629); details: KM ATP, read-out: % control
# T26 construct: purchased Life Technologies (Invitrogen) SelectScreen, Z'-LYTE / Adapta
# How it was run: as §1
# [30] = target: T27, TrkB_h (Homo sapiens, UniProt Q16620); details: KM ATP, read-out: % control
# T27 construct: purchased Life Technologies (Invitrogen) SelectScreen, Z'-LYTE / Adapta
# How it was run: as §1
# [31] = target: Tyk2_h (Homo sapiens, UniProt P29597)
# Tyk2_h, sequence (P29597 whole entry): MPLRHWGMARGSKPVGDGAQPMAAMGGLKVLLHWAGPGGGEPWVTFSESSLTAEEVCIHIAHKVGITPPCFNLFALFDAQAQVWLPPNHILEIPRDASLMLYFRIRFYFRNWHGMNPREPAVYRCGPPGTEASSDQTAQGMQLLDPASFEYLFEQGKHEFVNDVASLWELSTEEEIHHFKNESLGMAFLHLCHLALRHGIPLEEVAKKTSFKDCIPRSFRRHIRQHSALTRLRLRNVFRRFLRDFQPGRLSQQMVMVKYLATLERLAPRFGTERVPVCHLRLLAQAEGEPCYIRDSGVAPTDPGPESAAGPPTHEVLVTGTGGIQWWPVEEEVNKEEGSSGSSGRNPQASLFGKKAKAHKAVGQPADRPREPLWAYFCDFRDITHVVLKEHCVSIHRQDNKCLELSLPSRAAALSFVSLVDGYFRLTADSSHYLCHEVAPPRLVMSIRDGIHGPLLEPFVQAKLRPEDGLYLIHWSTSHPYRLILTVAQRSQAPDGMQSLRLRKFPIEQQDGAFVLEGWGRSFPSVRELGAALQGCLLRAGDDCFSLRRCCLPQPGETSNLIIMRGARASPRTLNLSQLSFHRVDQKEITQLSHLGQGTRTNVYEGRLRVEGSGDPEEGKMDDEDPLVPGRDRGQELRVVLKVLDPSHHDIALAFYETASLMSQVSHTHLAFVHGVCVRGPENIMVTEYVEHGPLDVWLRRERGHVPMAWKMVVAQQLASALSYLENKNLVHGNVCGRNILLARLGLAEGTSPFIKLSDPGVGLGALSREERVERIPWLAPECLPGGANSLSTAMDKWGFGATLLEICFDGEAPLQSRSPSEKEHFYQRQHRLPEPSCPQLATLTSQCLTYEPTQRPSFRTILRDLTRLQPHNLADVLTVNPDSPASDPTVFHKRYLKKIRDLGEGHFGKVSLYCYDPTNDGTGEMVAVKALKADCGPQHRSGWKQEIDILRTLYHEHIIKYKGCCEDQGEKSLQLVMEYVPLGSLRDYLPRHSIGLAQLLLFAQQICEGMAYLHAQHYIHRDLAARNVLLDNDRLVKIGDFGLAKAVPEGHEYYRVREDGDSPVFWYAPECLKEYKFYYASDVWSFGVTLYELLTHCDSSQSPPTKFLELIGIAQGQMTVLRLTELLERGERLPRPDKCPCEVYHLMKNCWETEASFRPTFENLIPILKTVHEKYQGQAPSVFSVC
# How it was run: as §1
# [32] = target: T28, p38-beta_h (Homo sapiens, UniProt Q15759); details: KM ATP, read-out: % control
# T28 construct: purchased Life Technologies (Invitrogen) SelectScreen, Z'-LYTE / Adapta
# How it was run: as §1
# [33] = target: T29, p38-delta_h (Homo sapiens, UniProt O15264); details: KM ATP, read-out: % control
# T29 construct: purchased Life Technologies (Invitrogen) SelectScreen, Z'-LYTE / Adapta
# How it was run: as §1
# [34] = 3 µM, KM ATP, read-out: % control
# [35] = 10-point dose-response, commercial vendor
compound,measurement,setting,value
"c1cc(CC2CCOCC2)n2nc(Nc3ccc4c(NC5CCOCC5)n[nH]c4c3)nc2c1 [CC-509, [3-(2H-3,4,5,6-tetrahydropyran-4-ylamino)(1H-indazol-6-yl)][5-(2H-3,4,5,6-tetrahydropyran-4-ylmethyl)(2H-1,2,4-triazolo[1,5-a]pyridin-2-yl)]amine]",remaining activity at 3 µM,[1],34%
same,remaining activity at 3 µM,[2],82%
same,remaining activity at 3 µM,[3],97%
same,remaining activity at 3 µM,[4],88%
same,remaining activity at 3 µM,[5],89%
same,remaining activity at 3 µM,[6],81%
same,remaining activity at 3 µM,[7],98%
same,remaining activity at 3 µM,[8],69%
same,remaining activity at 3 µM,[9],21%
same,remaining activity at 3 µM,[10],88%
same,remaining activity at 3 µM,[11],96%
same,remaining activity at 3 µM,[12],100%
same,remaining activity at 3 µM,[13],99%
same,remaining activity at 3 µM,[14],91%
same,remaining activity at 3 µM,[15]; [34],5%
same,IC50,[15]; [35],20 nM and 18 nM
same,remaining activity at 3 µM,[16],94%
same,remaining activity at 3 µM,[17]; [34],3%
same,IC50,[17]; [35],185 nM
same,remaining activity at 3 µM,[18],96%
same,remaining activity at 3 µM,[19],94%
same,remaining activity at 3 µM,[20],65%
same,remaining activity at 3 µM,[21],74%
same,remaining activity at 3 µM,[22],52%
same,remaining activity at 3 µM,[23],91%
same,remaining activity at 3 µM,[24],60%
same,remaining activity at 3 µM,[25],101%
same,remaining activity at 3 µM,[26],88%
same,remaining activity at 3 µM,[27],87%
same,remaining activity at 3 µM,[28]; [34],-2%
same,IC50,[28]; [35],27.3 nM
same,remaining activity at 3 µM,[29],41%
same,remaining activity at 3 µM,[30],34%
same,remaining activity at 3 µM,[31]; [34],3%
same,IC50,[31]; [35],110 nM and 112 nM
same,remaining activity at 3 µM,[32],84%
same,remaining activity at 3 µM,[33],82%

# From PMC4710522, “A Novel Triazolopyridine-Based Spleen Tyrosine Kinase Inhibitor That Arrests Joint Inflammation” (PLoS ONE, 2016)
